{"source": "patent US9873693B2", "about": "(Sunesis Pharmaceuticals, Inc., priority 2006, dated 2018)", "key": {"phosphorylated PDK1": {"molecular_target": "phosphorylated PDK1 (Homo sapiens (Human), UniProt O15530)", "sequence (O15530 51-360)": "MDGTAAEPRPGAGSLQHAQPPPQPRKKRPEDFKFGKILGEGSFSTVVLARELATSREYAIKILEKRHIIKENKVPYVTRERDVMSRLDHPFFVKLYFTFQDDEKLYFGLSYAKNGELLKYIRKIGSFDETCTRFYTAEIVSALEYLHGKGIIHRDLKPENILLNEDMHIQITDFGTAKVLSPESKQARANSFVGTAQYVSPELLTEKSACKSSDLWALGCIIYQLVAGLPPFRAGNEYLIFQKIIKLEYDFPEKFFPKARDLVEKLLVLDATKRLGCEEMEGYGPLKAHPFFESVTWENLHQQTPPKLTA", "test": "PDK1 kinase assay (coupled PDK1/AKT/FAM-crosstide, IMAP)", "format": "biochemical", "conditions": "0.5 nM phosphorylated PDK1, 24 μM ATP; read-out: Inhibition of phospo-PDK1 in vitro IC50"}, "phospho-akt (Thr308)": {"tested_on": "phospho-akt (Thr308)", "test": "phospho-akt (Thr308) MSD ELISA in PC-3 cells", "format": "cell-based", "conditions": "Homo sapiens, PC-3, 2 h, PC-3 cells, 2 hours, no serum; read-out: Inhibition of P308 Akt in cells using MSD EC50", "method_in_brief": "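Read-out is MSD electrochemiluminescence after lysate capture overnight at 4 degrees and 1 hr RT detection-antibody step. Before lysis, overnight-plated PC-3 cells received three-fold serial dilutions of inhibitor in serum-free medium, with DMSO-only high controls.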"}, "Phospho-T308 Akt": {"tested_on": "Phospho-T308 Akt", "test": "Phospho-T308 Akt detection using immunoblot (western blot) in PC-3 cells", "format": "cell-based", "conditions": "2 μM or 5 μM, concentration not given", "method_in_brief": "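PC-3 prostate cells, cultured overnight in F12K plus 10% FBS, were treated for 2 h at 37 °C in serum-free medium with compound A (1000× DMSO dilutions). Lysate protein was immunoblotted with anti-phospho-Akt Thr308. Bands were quantified by background-subtracted densitometry, giving EC50 by non-linear regression and percent decrease at 2 μM and 5 μM.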"}}, "data": [{"smiles": "O=C(NCc1nc(-c2c[nH]c3ncccc23)cs1)c1cccn(Cc2ccc(F)c(F)c2)c1=O", "note": "[Cpd 112]", "values": [{"measurement": "IC50", "setting": "phosphorylated PDK1", "result": "< 500", "unit": "nM"}, {"measurement": "EC50", "setting": "phospho-akt (Thr308)", "result": "< 1000", "unit": "nM"}, {"measurement": "Percent Inhibition of phospho-Akt (308) By Western", "setting": "Phospho-T308 Akt", "result": "d (inhibition of less than 25%)"}]}]}
